Results from US20060111416A1, “Octahydropyrrolo[3,4-C]pyrrole derivatives” (priority 2004, published 2006).

molecular target: T1, histamine H4 receptor (Homo sapiens, UniProt Q9H3N8); experiment: H4 binding ([3H]-Histamine competition binding on CHO cell membranes); details: [3H]-Histamine 3 nM, membranes of CHO cells expressing the histamine H4 receptor; Ki calculated from IC50 by Cheng-Prussoff
T1 construct: expressed in transfected cells; host or cells: CHO cells (membranes)
Protocol: Cell pellets from CHO cells expressing the histamine H4 receptor were homogenised in ice-cold 50 mM Tris-HCl/0.5 mM CaCl2 buffer containing a protease inhibitor cocktail (Roche®, United Kingdom) using a ground glass homogeniser. Homogenates were centrifuged at 48000 g for 30 min at 4° C. The membrane pellet was resuspended in fresh buffer and the centrifugation step was repeated as described above. The membrane pellet was resuspended in 50 mM Tris-HCl in the same volume as the original cell pellet.
The reaction was terminated by rapid filtration through 0.5% polyethylenimine-soaked Unifilter GF/B plates (Packard) followed by three washes with 1 ml ice-cold 50 mM Tris-HCl. Filters were dried for 45 min at 45° C. and bound radiolabel was determined using scintillation counting techniques. Non-specific binding was defined with 5 μM clobenpropit.

T1 sequence (Q9H3N8 whole entry): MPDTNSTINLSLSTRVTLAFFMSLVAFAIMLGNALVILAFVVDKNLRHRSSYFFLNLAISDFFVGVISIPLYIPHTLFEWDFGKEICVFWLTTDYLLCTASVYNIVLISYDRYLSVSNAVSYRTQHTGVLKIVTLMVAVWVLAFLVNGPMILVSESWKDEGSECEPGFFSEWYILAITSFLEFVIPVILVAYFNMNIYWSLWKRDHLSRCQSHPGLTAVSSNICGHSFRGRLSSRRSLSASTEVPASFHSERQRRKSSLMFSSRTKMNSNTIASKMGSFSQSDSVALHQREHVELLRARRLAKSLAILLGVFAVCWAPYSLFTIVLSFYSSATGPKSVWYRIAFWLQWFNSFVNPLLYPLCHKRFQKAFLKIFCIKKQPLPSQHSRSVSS

Q: Which Ki does the source give for `CN1C[C@@H]2CN(C(=O)c3nc4ccccc4[nH]3)C[C@@H]2C1` [Example 1, 2-{[(3aR,6aS)5-Methylhexahydropyrrolo[3,4-c]pyrrol-2(1H)-yl]carbonyl}-1H-benzimidazole] here?
A: 91 nM

Q: `CN1C[C@@H]2CN(C(=O)c3nc4cc(F)ccc4[nH]3)C[C@@H]2C1` [Example 3, 5-Fluoro-2-{[(3aR,6aS)-5-methylhexahydropyrrolo[3,4-c]pyrrol-2(1H)-yl]carbonyl}-1H-benzimidazole] was tested. Which Ki did it give?
A: 82 nM

Q: Which Ki does the source give for `CN1C[C@@H]2CN(C(=O)c3cc4cc(Cl)ccc4[nH]3)C[C@@H]2C1` [Example 7, 5-Chloro-2-{[(3aR,6aS)-5-methylhexahydropyrrolo[3,4-c]pyrrol-2(1H)-yl]carbonyl}-1H-indole] here?
A: 16 nM

Q: `CN1C[C@@H]2CN(C(=O)c3cc4cc(O)ccc4[nH]3)C[C@@H]2C1` [Example 15, 2-{[(3aR,6aS)-5-Methylhexahydropyrrolo[3,4-c]pyrrol-2(1H)-yl]carbonyl}-1H-indol-5-ol] was tested. Which Ki did it give?
A: 28 nM

Q: How did the Ki turn out when `CN1C[C@@H]2CN(C(=O)c3cc4cc(F)ccc4[nH]3)C[C@@H]2C1` [Example 16, 5-Fluoro-2-{[(3aR,6aS)-5-methylhexahydropyrrolo[3,4-c]pyrrol-2(1H)-yl]carbonyl}-1H-indole] was run?
A: 20 nM

Q: With `Cc1ccc2[nH]c(C(=O)N3C[C@H]4CN(C)C[C@H]4C3)cc2c1` [Example 17, 5-Methyl-2-{[(3aR,6aS)-5-methylhexahydropyrrolo[3,4-c]pyrrol-2(1H)-yl]carbonyl}-1H-indole] as the compound, how does the Ki read?
A: 84 nM

Q: How did the Ki turn out when `CN1C[C@@H]2CN(C(=O)c3cc4cc(Br)ccc4[nH]3)C[C@@H]2C1` [Example 21, 5-Bromo-2-{[(3aR,6aS)-5-methylhexahydropyrrolo[3,4-c]pyrrol-2(1H)-yl]carbonyl}-1H-indole] was run?
A: 43 nM

Q: For `CN1C[C@@H]2CN(C(=O)c3cc4cccc(F)c4[nH]3)C[C@@H]2C1` [Example 22, 7-Fluoro-2-{[(3aR,6aS)-5-methylhexahydropyrrolo[3,4-c]pyrrol-2(1H)-yl]carbonyl}-1H-indole], which Ki is on record?
A: 20 nM

Q: Which Ki does the source give for `CN1C[C@@H]2CN(C(=O)c3nc4ccc(F)c(F)c4[nH]3)C[C@@H]2C1` [Example 25, 6,7-Difluoro-2-{[(3aR,6aS)-5-methylhexahydropyrrolo[3,4-c]pyrrol-2(1H)-yl]carbonyl}-1H-benzimidazole] here?
A: 67 nM

Q: For `Cc1cccc2nc(C(=O)N3C[C@H]4CN(C)C[C@H]4C3)[nH]c12` [Example 26, 7-Methyl-2-{[(3aR,6aS)-5-methylhexahydropyrrolo[3,4-c]pyrrol-2(1H)-yl]carbonyl}-1H-benzimidazole], which Ki is on record?
A: 110 nM

Q: For `CN1C[C@@H]2CN(C(=O)c3nc4cc(F)c(F)cc4[nH]3)C[C@@H]2C1` [Example 27, 5,6-Difluoro-2-{[(3aR,6aS)-5-methylhexahydropyrrolo[3,4-c]pyrrol-2(1H)-yl]carbonyl}-1H-benzimidazole], which Ki is on record?
A: 117 nM

Q: With `Cc1c(F)ccc2nc(C(=O)N3C[C@H]4CN(C)C[C@H]4C3)[nH]c12` [Example 41, 5-fluoro-4-methyl-2-{[(3aR,6aS)-5-methylhexahydropyrrolo [3,4-c]pyrrol-2(1H)-yl]carbonyl}-1H-benzimidazole] as the compound, how does the Ki read?
A: 53 nM

Q: For `Cc1c(Cl)ccc2[nH]c(C(=O)N3C[C@H]4CN(C)C[C@H]4C3)nc12` [Example 48, 5-Chloro-4-methyl-2-{[(3aR,6aS)-5-methylhexahydropyrrolo[3,4-c]pyrrol-2(1H)-yl]carbonyl}-1H-benzimidazole], which Ki is on record?
A: 91 nM

Q: How did the Ki turn out when `CN1C[C@@H]2CN(C(=O)c3nc4c(F)c(F)c(F)cc4[nH]3)C[C@@H]2C1` [Example 58, 4,5,6-Trifluoro-2-{[(3aR,6aS)-5-methylhexahydropyrrolo [3,4-c]pyrrol-2(1H)-yl]carbonyl}-1H-benzimidazole] was run?
A: 100 nM

Q: With `CN1C[C@@H]2CN(C(=N)c3nc4cc(F)c(F)cc4[nH]3)C[C@@H]2C1` [Example 59, 1-(5,6-Difluoro-1H-benzimidazol-2-yl)-1-[(3aR,6aS)-5-methylhexahydropyrrolo[3,4-c]pyrrol-2(1H)-yl]methanimine] as the compound, how does the Ki read?
A: 7 nM

Q: How did the Ki turn out when `CN1C[C@@H]2CN(C(=N)c3nc4cc(F)ccc4[nH]3)C[C@@H]2C1` [Example 60, 1-(5-Fluoro-1H-benzimidazol-2-yl)-1-[(3aR,6aS)-5-methylhexahydropyrrolo[3,4-c]pyrrol-2(1H)-yl]methanimine] was run?
A: 6 nM

Q: `CN1C[C@@H]2CN(C(=N)c3nc4c(F)c(F)ccc4[nH]3)C[C@@H]2C1` [Example 61, 1-(4,5-Difluoro-1H-benzimidazol-2-yl)-1-[(3aR, 6aS)-5-methylhexahydropyrrolo[3,4-c]pyrrol-2(1H)-yl]methanimine] was tested. Which Ki did it give?
A: 24 nM

Q: Which Ki does the source give for `Cc1cccc2nc(C(=N)N3C[C@H]4CN(C)C[C@H]4C3)[nH]c12` [Example 62, 1-(4-Methyl-1H-benzimidazol-2-yl)-1-[(3aR, 6aS)-5-methylhexahydropyrrolo[3,4-c]pyrrol-2(1H)-yl]methanimine] here?
A: 7 nM

Q: How did the Ki turn out when `CN1C[C@@H]2CN(C(=N)c3nc4cc(F)cc(F)c4[nH]3)C[C@@H]2C1` [Example 63, 1-(4,6-Difluoro-1H-benzimidazol-2-yl)-1-[(3aR, 6aS)-5-methylhexahydropyrrolo[3,4-c]pyrrol-2(1H)-yl]methanimine] was run?
A: 47 nM

Q: For `Cc1c(F)ccc2nc(C(=N)N3C[C@H]4CN(C)C[C@H]4C3)[nH]c12` [Example 64, 1-(6-Fluoro-7-methyl-1H-benzimidazol-2-yl)-1-[(3aR, 6aS)-5-methylhexahydropyrrolo[3,4-c]pyrrol-2(1H)-yl]methanimine], which Ki is on record?
A: 4 nM

Q: With `Cc1c(Cl)ccc2nc(C(=N)N3C[C@H]4CN(C)C[C@H]4C3)[nH]c12` [Example 65, 1-(6-Chloro-7-methyl-1H-benzimidazol-2-yl)-1-[(3aR, 6aS)-5-methylhexahydropyrrolo[3,4-c]pyrrol-2(1H)-yl]methanimine] as the compound, how does the Ki read?
A: 12 nM

Q: Which Ki does the source give for `CN1C[C@@H]2CN(C(=N)c3nc4cccc(F)c4[nH]3)C[C@@H]2C1` [Example 66, 1-(7-Fluoro-1H-benzimidazol-2-yl)-1-[(3aR, 6aS)-5-methylhexahydropyrrolo[3,4-c]pyrrol-2(1H)-yl]methanimine] here?
A: 24 nM

Q: `CN1C[C@@H]2CN(C(=N)c3nc4c(F)c(F)c(F)cc4[nH]3)C[C@@H]2C1` [Example 67, 1-[(3aR, 6aS)-5-Methylhexahydropyrrolo[3,4-c]pyrrol-2(1H)-yl]-1-(4,5,6-trifluoro-1H-benzimidazol-2-yl)methanimine] was tested. Which Ki did it give?
A: 60 nM

Q: `CN1C[C@@H]2CN(C(=N)c3nc4cc(Cl)ccc4[nH]3)C[C@@H]2C1` [Example 68, 1-(5-Chloro-1H-benzimidazol-2-yl)-1-[(3aR, 6aS)-5-methylhexahydropyrrolo[3,4-c]pyrrol-2(1H)-yl]methanimine] was tested. Which Ki did it give?
A: 26 nM
